Measurements taken from US9018258B2, “Substituted 1-benzylcycloalkylcarboxylic acids and the use thereof” (Bayer Intellectual Property GmbH, priority 2010, dated 2015).

Assays:
[1] = target: T1, GAL4-PPARα (Homo sapiens, UniProt Q07869); assay: Cellular PPAR transactivation assay, GAL4-PPARα chimera in CHO-K1 cells; type: cell-based; details: for Emax: CHO-K1, maximum effect relative to reference compound (Example 73 of EP 1 452 521-A1 = 100%), read-out: PPARα efficacy; for EC50: CHO-K1 cells, luciferase reporter, 6 h stimulation
T1 construct: expressed in transfected cells
T1 sequence (Q07869 167-468): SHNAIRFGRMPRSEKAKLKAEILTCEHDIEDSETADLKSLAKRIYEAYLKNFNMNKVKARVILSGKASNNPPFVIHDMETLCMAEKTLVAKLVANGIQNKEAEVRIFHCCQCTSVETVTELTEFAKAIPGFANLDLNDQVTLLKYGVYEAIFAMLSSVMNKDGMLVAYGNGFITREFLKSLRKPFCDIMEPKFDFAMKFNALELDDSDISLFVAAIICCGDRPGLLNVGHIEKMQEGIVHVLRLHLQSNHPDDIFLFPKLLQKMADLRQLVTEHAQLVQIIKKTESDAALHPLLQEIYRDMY
Summary of the method: (§1)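 CHO-K1 cells stably expressing GAL4 DNA-binding domain fused to the human PPAR ligand-binding domain (α aa 167-468, γ aa 203-506, δ aa 138-442) plus a GAL4-driven firefly luciferase reporter. Compounds added in serum-free medium for 6 h; EC50 from luminescence curves. Efficacy in % of a pan-PPAR agonist reference set as 100%.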

[2] = target: T2, sGC (Rattus norvegicus, UniProt P20595); assay: Action at a recombinant guanylate cyclase reporter cell line (CHO reporter cell); type: cell-based; details: CHO reporter cell in vitro
T2 construct: expressed in transfected cells; host or cells: CHO reporter cell
T2 sequence (P19686 whole entry partner): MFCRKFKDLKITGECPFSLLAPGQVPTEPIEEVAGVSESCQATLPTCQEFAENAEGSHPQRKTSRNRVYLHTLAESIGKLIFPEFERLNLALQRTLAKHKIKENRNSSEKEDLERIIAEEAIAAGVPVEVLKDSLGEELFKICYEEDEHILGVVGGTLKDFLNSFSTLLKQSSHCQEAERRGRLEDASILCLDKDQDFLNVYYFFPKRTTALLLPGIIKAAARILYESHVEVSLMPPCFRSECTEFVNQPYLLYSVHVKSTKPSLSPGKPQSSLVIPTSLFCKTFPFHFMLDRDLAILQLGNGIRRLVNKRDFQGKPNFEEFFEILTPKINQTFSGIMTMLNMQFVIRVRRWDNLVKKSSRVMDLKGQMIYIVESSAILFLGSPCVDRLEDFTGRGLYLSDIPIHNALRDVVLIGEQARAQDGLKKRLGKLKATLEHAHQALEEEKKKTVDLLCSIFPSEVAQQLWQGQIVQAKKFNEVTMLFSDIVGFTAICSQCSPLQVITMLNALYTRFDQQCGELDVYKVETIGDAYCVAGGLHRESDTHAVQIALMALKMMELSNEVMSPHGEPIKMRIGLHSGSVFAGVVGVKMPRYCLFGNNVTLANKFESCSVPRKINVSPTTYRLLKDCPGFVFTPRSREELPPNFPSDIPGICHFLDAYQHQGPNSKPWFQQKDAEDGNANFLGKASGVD
T2 sequence (P20595 whole entry): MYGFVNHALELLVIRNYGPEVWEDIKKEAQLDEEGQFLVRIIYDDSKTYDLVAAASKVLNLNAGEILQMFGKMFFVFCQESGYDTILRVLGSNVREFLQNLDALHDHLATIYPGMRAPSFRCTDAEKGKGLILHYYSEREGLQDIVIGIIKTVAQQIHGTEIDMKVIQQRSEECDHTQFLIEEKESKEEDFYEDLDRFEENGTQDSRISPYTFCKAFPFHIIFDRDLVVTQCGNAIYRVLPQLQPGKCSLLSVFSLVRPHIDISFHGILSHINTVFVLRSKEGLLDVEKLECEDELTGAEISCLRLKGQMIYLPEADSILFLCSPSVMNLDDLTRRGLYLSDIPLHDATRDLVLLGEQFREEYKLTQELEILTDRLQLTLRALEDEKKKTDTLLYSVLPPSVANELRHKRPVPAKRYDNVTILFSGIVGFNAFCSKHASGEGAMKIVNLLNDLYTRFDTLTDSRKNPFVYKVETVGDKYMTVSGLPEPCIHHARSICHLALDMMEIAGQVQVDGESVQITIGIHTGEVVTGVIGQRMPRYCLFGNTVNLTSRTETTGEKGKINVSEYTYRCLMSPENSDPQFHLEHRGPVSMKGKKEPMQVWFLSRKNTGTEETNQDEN
Experimental: The cellular action of the compounds according to the invention is determined at a recombinant guanylate cyclase reporter cell line, as described in F. Wunder et al., Anal. Biochem. 339, 104-112 (2005).

[3] = target: T3, soluble guanylate cyclase (sGC) (Rattus norvegicus, UniProt P20595); assay: Stimulation of sGC enzyme activity (PPi detection, luciferase); type: biochemical; details: sGC enzyme in vitro; for EC50: read-out: EC50 (concentration at 50% of maximum efficacy), activating action at the sGC enzyme
T3 construct: made in house; host or cells: Sf9 insect cells (baculovirus)
T3 sequence (P19686 whole entry partner): as the sequence (P19686 whole entry partner) above
T3 sequence (P20595 whole entry): as the sequence (P20595 whole entry) above
Experimental: Soluble guanylate cyclase (sGC) converts on stimulation GTP into cGMP and pyrophosphate (PPi). PPi is detected with the aid of the assay described below. The signal produced in the assay increases as the reaction progresses and serves as a measure of the sGC enzyme activity under the given stimulation.
To carry out the assay, 29 μl of enzyme solution [0-10 nM soluble guanylate cyclase (prepared according to Honicka et al., J. Mol. Med. 77, 14-23 (1999)) in 50 mM TEA, 2 mM MgCl2, 0.1% BSA (fraction V), 0.005% Brij®, pH 7.5] are initially introduced into a microplate, and 1 μl of the substance to be tested (as a serially diluted solution in DMSO) is added. The mixture is incubated at room temperature for 10 min. Then 20 μl of detection mix [1.2 nM Firefly Luciferase (Photinus pyralis luciferase, Promega), 29 μM dehydroluciferin (prepared according to Bitler & McElroy, Arch. Biochem. Biophys. 72, 358 (1957)), 122 μM luciferin (Promega), 153 μM ATP (Sigma) and 0.4 mM DTT (Sigma) in 50 mM TEA, 2 mM MgCl2, 0.1% BSA (fraction V), 0.005% Brij®, pH 7.5] are added. The enzyme reaction is started by adding 20 μl of substrate solution [1.25 mM guanosine 5′-triphosphate (Sigma) in 50 mM TEA, 2 mM MgCl2, 0.1% BSA (fraction V), 0.005% Brij®, pH 7.5] and measured continuously in a luminometer. The extent of the stimulation by the substance to be tested can be determined relative to the signal of the unstimulated reaction.
The activation of haem-free guanylate cyclase is examined by addition of 25 μM of 1H-1,2,4-oxadiazolo[4,3-a]quinoxalin-1-one (ODQ) to the enzyme solution and subsequent incubation for 30 minutes and compared to the stimulation of the native enzyme.

[4] = target: T4, GAL4-PPARδ (Homo sapiens, UniProt Q03181); assay: Cellular PPAR transactivation assay, GAL4-PPARδ chimera in CHO-K1 cells; type: cell-based; details: for Emax: CHO-K1, maximum effect relative to reference compound (Example 73 of EP 1 452 521-A1 = 100%), read-out: PPARδ efficacy; for EC50: CHO-K1 cells, luciferase reporter, 6 h stimulation
T4 construct: PPARδ (amino acids 138-442); expressed in transfected cells
T4 sequence (Q03181 138-441 limits assumed): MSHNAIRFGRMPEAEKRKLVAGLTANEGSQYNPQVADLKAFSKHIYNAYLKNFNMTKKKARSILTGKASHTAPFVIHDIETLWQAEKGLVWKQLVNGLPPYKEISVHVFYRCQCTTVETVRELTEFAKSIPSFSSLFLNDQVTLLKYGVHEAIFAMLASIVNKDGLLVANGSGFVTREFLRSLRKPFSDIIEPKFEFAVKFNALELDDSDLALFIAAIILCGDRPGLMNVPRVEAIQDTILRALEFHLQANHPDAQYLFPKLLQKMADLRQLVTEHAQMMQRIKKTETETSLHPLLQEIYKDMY
Summary of the method: as §1

Row | Emax [1] [%] | EC50 [1] [µM] | MEC (minimum effective concentration), sGC-activating activity in the CHO reporter cell [2] [nM] | MEC (minimum effective concentration), activating action at the sGC enzyme [3] [nM] | EC50 [3] [µM] | Emax [4] [%] | EC50 [4] [µM] | SMILES
1 | 0 | > 10 | 0.3 | 0.7 | 0.0046 | 0 | > 10 | CCOC(c1ccc(Cl)c(NC(=O)[C@H](c2ccc(Cl)cc2)[C@@H](C)C(F)(F)F)c1)C1(C(=O)O)CC1 (single isomer, unassigned) [Example 101]
2 | 0 | > 10 | 0.4 | 0.7 | 0.0073 | 0 | > 10 | C[C@H]([C@H](C(=O)Nc1cc(CC2(C(=O)O)CC2)ccc1Cl)c1ccc(Cl)cc1)C(F)(F)F [Example 50, (+)-1-(4-Chloro-3-{[(2S,3R)-2-(4-chlorophenyl)-4,4,4-trifluoro-3-methylbutanoyl]amino}benzyl)-cyclopropanecarboxylic acid]
3 | 0 | > 10 | 1 | 4.1 | 0.053 | 0 | > 10 | [2H]C([2H])([2H])OC(c1ccc(Cl)c(NC(=O)[C@H](c2ccc(Cl)cc2)[C@@H](C)C(F)(F)F)c1)C1(C(=O)O)CC1 (single isomer, unassigned; (+)) [Example 99]
4 | 0 | > 10 | 0.3 | 0.6 | 0.0076 | 0 | > 10 | C[C@H]([C@H](C(=O)Nc1cc(CC2(C(=O)O)CC2)ccc1Cl)c1ccc(Cl)c(F)c1)C(F)(F)F [Example 30, (+)-1-(4-chloro-3-{[(2S,3R)-2-(4-chloro-3-fluoro-phenyl)-4,4,4-trifluoro-3-methylbutanoyl]amino}-benzyl)cyclopropanecarboxylic acid]
